Measurements reported in publication PMC6691788, “Design and synthesis of phthalazine-based compounds as potent anticancer agents with potential antiangiogenic activity via VEGFR-2 inhibition” (Journal of Enzyme Inhibition and Medicinal Chemistry, 2019).

Tests used:
[1] = test system: HOP-62; assay: NCI 60 cell panel SRB screen; type: cell-based; settings: Homo sapiens; HOP-62, single dose 10 μM; read-out: percent cell growth promotion
[2] = test system: HCT-116; assay: NCI 60 cell panel SRB screen; type: cell-based; settings: Homo sapiens; HCT-116, single dose 10 μM; read-out: percent cell growth promotion
[3] = test system: HCT-15; assay: NCI 60 cell panel SRB screen; type: cell-based; settings: Homo sapiens; HCT-15, single dose 10 μM; read-out: percent cell growth promotion
[4] = test system: SF-295; assay: NCI 60 cell panel SRB screen; type: cell-based; settings: Homo sapiens; SF-295, single dose 10 μM; read-out: percent cell growth promotion
[5] = test system: SNB-19; assay: NCI 60 cell panel SRB screen; type: cell-based; settings: Homo sapiens; SNB-19, single dose 10 μM; read-out: percent cell growth promotion
[6] = test system: U251; assay: NCI 60 cell panel SRB screen; type: cell-based; settings: Homo sapiens, U-251; U251, single dose 10 μM; read-out: percent cell growth promotion
[7] = test system: M14; assay: NCI 60 cell panel SRB screen; type: cell-based; settings: Homo sapiens, M14, read-out: percent cell growth promotion
[8] = test system: MDA-MB-435; assay: NCI 60 cell panel SRB screen; type: cell-based; settings: Homo sapiens, MDA-MB-435, read-out: percent cell growth promotion
[9] = test system: SK-MEL-5; assay: NCI 60 cell panel SRB screen; type: cell-based; settings: Homo sapiens, SK-MEL-5, read-out: percent cell growth promotion
[10] = test system: UACC-62; assay: NCI 60 cell panel SRB screen; type: cell-based; settings: Homo sapiens, UACC-62, read-out: percent cell growth promotion
[11] = test system: A498; assay: NCI 60 cell panel SRB screen; type: cell-based; settings: Homo sapiens; A498, single dose 10 μM; read-out: percent cell growth promotion
[12] = test system: ACHN; assay: NCI 60 cell panel SRB screen; type: cell-based; settings: Homo sapiens, single dose 10 μM, read-out: percent cell growth promotion
[13] = test system: CAKI-1; assay: NCI 60 cell panel SRB screen; type: cell-based, human; settings: Homo sapiens; CAKI-1, single dose 10 μM; read-out: percent cell growth promotion
[14] = test system: SN12C; assay: NCI 60 cell panel SRB screen; type: cell-based; settings: Homo sapiens, single dose 10 μM, read-out: percent cell growth promotion
[15] = test system: DU-145; assay: NCI 60 cell panel SRB screen; type: cell-based; settings: Homo sapiens; DU-145, single dose 10 μM; read-out: percent cell growth promotion
[16] = test system: MCF7; assay: NCI 60 cell panel SRB screen; type: cell-based; settings: Homo sapiens, MCF7, read-out: percent cell growth promotion
[17] = test system: MDA-MB 231/ATCC; assay: NCI 60 cell panel SRB screen; type: cell-based; settings: Homo sapiens, MDA-MB-231, read-out: percent cell growth promotion
[18] = test system: HS 578T; assay: NCI 60 cell panel SRB screen; type: cell-based; settings: Homo sapiens, Hs-578T, read-out: percent cell growth promotion
[19] = test system: full NCI 60 cell panel; assay: NCI 60 cell panel SRB screen, whole panel; type: cell-based, human; settings: for activity at 10 µM: Homo sapiens, 60 cell, mean over the panel, single dose 10 μM, read-out: Mean percent cell growth promotion; for cell growth inhibition, in words: single dose 10 µM

SMILES	activity at 10 µM [1] [%]	activity at 10 µM [2] [%]	activity at 10 µM [3] [%]	activity at 10 µM [4] [%]	activity at 10 µM [5] [%]	activity at 10 µM [6] [%]	activity at 10 µM [7] [%]	activity at 10 µM [8] [%]	activity at 10 µM [9] [%]	activity at 10 µM [10] [%]	activity at 10 µM [11] [%]	activity at 10 µM [12] [%]	activity at 10 µM [13] [%]	activity at 10 µM [14] [%]	activity at 10 µM [15] [%]	activity at 10 µM [16] [%]	activity at 10 µM [17] [%]	activity at 10 µM [18] [%]	activity at 10 µM [19] [%]	cell growth inhibition, in words [19]
Cc1nnc(N2CCN(c3ccccc3)CC2)c2ccccc12 [Compound 8g, 1-Methyl-4–(4-phenylpiperazin-1-yl)phthalazine]	97.1	113	98.5	96	105	96.7	94.8	99.5	98.1	110	71.7	100	95.3	100	111	96.7	127	105	102	nor the piperazines (8a, 8d, 8f, 8g, 8h and 8i) showed any significant cell line growth inhibition
CCOC(=O)N1CCN(c2nncc3ccccc23)CC1 [Compound 8a, Ethyl 4-(phthalazin-1-yl)piperazine-1-carboxylate]	107	99.1	111	102	103	99.3	110	105	103	103	105	115	96.1	110	104	103	108	113	105	nor the piperazines (8a, 8d, 8f, 8g, 8h and 8i) showed any significant cell line growth inhibition
O=C(Nc1ccc(Cl)cc1)Nc1ccc(Oc2nnc(Cl)c3ccccc23)cc1 [Compound 13b, 1–(4-Chlorophenyl)-3–(4-(4-chlorophthalazin-1-yloxy)phenyl)urea]	93.3	97.8	94.1	91.6	103	86.7	103	93.9	95.5	75.7	103	80.7	99.1	91.4	86.8	86.2	67.5	97.9	88.7	did not show any significant cell line growth inhibition
